In PubChem BioAssay (NCI):
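GI50 is the concentration that inhibits growth by half. TGI denotes the concentration required for complete inhibition of growth.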

Key:
Assay in all cases: NCI tumour cell line growth inhibition, 384-well format
[1] = tested on: HCC-2998 colon
[2] = tested on: NCI-H460 NSCLC
[3] = tested on: OVCAR-3 ovarian
[4] = tested on: OVCAR-8 ovarian
[5] = tested on: NCI-H322M lung
[6] = tested on: MDA-MB-231 breast
[7] = tested on: UACC-62 melanoma
[8] = tested on: SK-MEL-5 melanoma
[9] = tested on: A498 renal
[10] = tested on: DU-145 prostate
[11] = tested on: HT29 colon
[12] = tested on: OVCAR-5 ovarian
[13] = tested on: KM12 colon
[14] = tested on: HCT-116 colon
[15] = tested on: CAKI-1 renal
[16] = tested on: SF-268 CNS
[17] = tested on: HL-60(TB) leukemia
[18] = tested on: NCI-H23 lung
[19] = tested on: SNB-19 CNS
[20] = tested on: SF-295 CNS
[21] = tested on: A549 NSCLC
[22] = tested on: HOP-92 NSCLC
[23] = tested on: K-562 leukemia
[24] = tested on: HS 578T breast
[25] = tested on: MALME-3M melanoma
[26] = tested on: SNB-75 CNS
[27] = tested on: T-47D breast
[28] = tested on: SF-539 CNS
[29] = tested on: SK-MEL-28 melanoma
[30] = tested on: EKVX NSCLC
[31] = tested on: RPMI-8226 leukemia
[32] = tested on: IGROV1 ovarian
[33] = tested on: MDA-MB-435 melanoma
[34] = tested on: OVCAR-4 ovarian
[35] = tested on: U251 glioblastoma
[36] = tested on: MCF7 breast
[37] = tested on: SW-620 colon
[38] = tested on: SK-OV-3 ovarian
[39] = tested on: LOX IMVI melanoma
[40] = tested on: TK-10 renal
[41] = tested on: 786-0 renal
[42] = tested on: COLO 205 colon
[43] = tested on: MOLT-4 leukemia
[44] = tested on: MDA-MB-468 breast
[45] = tested on: SN12C renal
[46] = tested on: UACC-257 melanoma
[47] = tested on: RXF 393 renal
[48] = tested on: NCI/ADR-RES ovarian
[49] = tested on: HCT-15 colon
[50] = tested on: M14 melanoma
[51] = tested on: BT-549 breast
[52] = tested on: UO-31 renal
[53] = tested on: NCI-H226 lung
[54] = tested on: SK-MEL-2 melanoma
[55] = tested on: HOP-62 NSCLC
[56] = tested on: CCRF-CEM leukemia
[57] = tested on: ACHN renal
[58] = tested on: PC-3 prostate

For `CC(C)c1cnc(-c2cc(Cl)ccc2F)cc1Nc1ccncc1C(=O)NC(CO)CO`, the GI50 [1] was 15.9 µM, the TGI [1] was 29.4 µM and the GI50 [2] was 12.3 µM. For the same compound, the TGI [2] was 24.8 µM, the GI50 [3] was 12.8 µM and the TGI [3] was 25.5 µM. The GI50 [4] was 1.57 µM, the TGI [4] was 5.09 µM and the GI50 [5] was 2.01 µM. The TGI [5] was 15.6 µM, the GI50 [6] was 0.964 µM and the TGI [6] was 14.5 µM. The GI50 [7] was 0.852 µM, the TGI [7] was 18.2 µM and the GI50 [8] was 11.6 µM. For the same compound, the TGI [8] was 23.8 µM, the GI50 [9] was 2.33 µM and the TGI [9] was 16.1 µM. For the same compound, the GI50 [10] was 11.5 µM, the TGI [10] was 23.7 µM and the GI50 [11] was 13.3 µM. The TGI [11] was 26.1 µM, the GI50 [12] was 14.1 µM and the TGI [12] was 27.1 µM. The GI50 [13] was 2.76 µM, the TGI [13] was 15.9 µM and the GI50 [14] was 10.7 µM. For the same compound, the TGI [14] was 22.6 µM, the GI50 [15] was 10.4 µM and the TGI [15] was 22.1 µM. For the same compound, the GI50 [16] was 3.8 µM, the TGI [16] was 17.6 µM and the GI50 [17] was 0.263 µM. The TGI [17] was 1.57 µM, the GI50 [18] was 0.892 µM and the TGI [18] was 9.05 µM. It also gave a GI50 [19] of 13.1 µM, a TGI [19] of 25.9 µM and a GI50 [20] of 5.02 µM. For the same compound, the TGI [20] was 17.7 µM, the GI50 [21] was 2.22 µM and the TGI [21] was 15 µM. The GI50 [22] was 6.81 µM, the TGI [22] was 19.8 µM and the GI50 [23] was 7.06 µM. For the same compound, the TGI [23] was 19.5 µM, the GI50 [24] was 10.5 µM and the TGI [24] was 22.3 µM. It also gave a GI50 [25] of 2.14 µM, a TGI [25] of 11.2 µM and a GI50 [26] of 12.1 µM. It also gave a TGI [26] of 24.5 µM, a GI50 [27] of 3.81 µM and a TGI [27] of 17.2 µM. The GI50 [28] was 1.16 µM, the TGI [28] was 11.6 µM and the GI50 [29] was 7.17 µM. For the same compound, the TGI [29] was 20.5 µM, the GI50 [30] was 2.57 µM and the TGI [30] was 16.8 µM. For the same compound, the GI50 [31] was 0.172 µM, the TGI [31] was 2 µM and the GI50 [32] was 13.2 µM. It also gave a TGI [32] of 26 µM, a GI50 [33] of 9.98 µM and a TGI [33] of 21.6 µM. The GI50 [34] was 0.581 µM, the TGI [34] was 2.65 µM and the GI50 [35] was 13.7 µM. It also gave a TGI [35] of 26.6 µM, a GI50 [36] of 0.124 µM and a TGI [36] of 5.16 µM. For the same compound, the GI50 [37] was 5.89 µM, the TGI [37] was 19.5 µM and the GI50 [38] was 0.832 µM. The TGI [38] was 14.2 µM, the GI50 [39] was 1.1 µM and the TGI [39] was 2.82 µM. It also gave a GI50 [40] of 10.3 µM, a TGI [40] of 22.1 µM and a GI50 [41] of 9.73 µM. For the same compound, the TGI [41] was 21.5 µM, the GI50 [42] was 2.56 µM and the TGI [42] was 14 µM. The GI50 [43] was 5.48 µM, the TGI [43] was 17.7 µM and the GI50 [44] was 4.51 µM. The TGI [44] was 15.1 µM, the GI50 [45] was 11.4 µM and the TGI [45] was 23.6 µM. It also gave a GI50 [46] of 12.5 µM, a TGI [46] of 25.1 µM and a GI50 [47] of 1.36 µM. The TGI [47] was 9.34 µM, the GI50 [48] was 10.8 µM and the TGI [48] was 22.9 µM. The GI50 [49] was 12.7 µM, the TGI [49] was 25.3 µM and the GI50 [50] was 4.27 µM. It also gave a TGI [50] of 19 µM, a GI50 [51] of 0.383 µM and a TGI [51] of 3.2 µM. It also gave a GI50 [52] of 12.7 µM, a TGI [52] of 25.4 µM and a GI50 [53] of 1.2 µM. It also gave a TGI [53] of 12.2 µM, a GI50 [54] of 20.5 µM and a TGI [54] of 34.8 µM. It also gave a GI50 [55] of 10.6 µM, a TGI [55] of 22.4 µM and a GI50 [56] of 5.22 µM. For the same compound, the TGI [56] was 17.1 µM, the GI50 [57] was 2.34 µM and the TGI [57] was 15.3 µM. The GI50 [58] was 2.22 µM and the TGI [58] was 11.7 µM.

For `CCCCCOC(=O)Nc1nc(=O)n(C2OC(C)C(O)C2O)cc1F` (stereo not drawn), the GI50 [31] was > 46.9 µM and the TGI [31] was 99.8 µM.
